Reference: patent US20160212997A1, “AGRICULTURAL CHEMICALS” (REDAG CROP PROTECTION LTD, priority 2013, published 2016)
Read-outs that look alike come from different tables or passages of the source.

How the values were obtained:
Assay type in all cases: in vivo
aphids, Myzus persicae = assay: Potter tower spray on aphids, knockdown and mortality; conditions: Aphids; for pest or weed control at 0.1 % strength: Myzus persicae, 0.1 % w/v, read-out: Average of % corrected affected
How it was run: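 Ten aphids (mixed sex and age) per Petri dish on a leaf disc were sprayed by Potter tower with compounds at five concentrations in DMSO. Knockdown and mortality were scored at 24 and 48 hours, five replicates per treatment, alongside carrier-only and untreated controls.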

[1] = test system: red spider mites, Tetranychus urticae; assay: Potter tower spray on red spider mites, knockdown and mortality; conditions: for percentage control: Spider mites; for activity against spider mites compared with the reference compound: versus flupyradifurone or sulfoxaflor respectively, tables 1 and 3
Description: The compounds were screened for insecticidal efficacy against aphids, Myzus persicae, Cabbage moth, Mamestra brassicae, diamond black moths, Plutella xylostella, red spider mites, Tetranychus urticae, whitefly, Trialeurodes vaporariorum, in terms of knockdown and mortality.
Myzus persicae, Cabbage moth, Mamestra brassicae, diamond back moths, Plutella xylostella, red spider mites, Tetranychus urticae, whitefly, Trialeurodes vaporariorum, were obtained from specified laboratory cultures. Mixed sex and age aphids and mites, moth larvae and whitefly scale infested leaves were used in the experiments. Environmental conditions were closely monitored and recorded and were within the optimal range of the target species.
The compounds were screened at a range of five concentrations, diluted in DMSO. Some of the compounds were screened against aphids, whitefly and red spider mites and other compounds were screened against cabbage moth, and diamond black moths. A carrier only and an untreated control will also be conducted. Treatments were applied directly onto the insects within Petri dishes, using a potter tower.
Twenty mites and ten aphids, scales and moth larvae were placed within a Petri dish, lined with a suitable leaf disc on a damp cotton wool pad. Scales were already on leaves. The Petri dishes were then sprayed using a potter tower. The number of knocked down and anthropods were assessed at 24 and 48 hours post treatment. Five replicates were be performed for each treatment, for each species.

[2] = test system: caterpillars, a mixture of Mamestra brassicae and Lacanobia oleracea; assay: Potter tower spray on caterpillars, knockdown and mortality; conditions: Caterpillars, read-out: Average of % corrected affected; for pest or weed control at 0.1 % strength: 0.1 % w/v; for pest or weed control at 0.00625 % strength: 0.00625 % w/v; for pest or weed control at 0.0125 % strength: 0.0125 % w/v; for pest or weed control at 0.025 % strength: 0.025 % w/v; for pest or weed control at 0.05 % strength: 0.05 % w/v
How it was run: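 Mixed Mamestra brassicae and Lacanobia oleracea larvae (ten per dish, on leaf disc over damp cotton wool) sprayed directly with a Potter tower at five concentrations in DMSO containing 1% v/v Tween 20, alongside carrier-only and untreated controls. Knockdown and mortality scored at 24 and 48 h post treatment; five replicates per treatment.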

[3] = 24 h, 24 hours post application
[4] = 48 h, 48 hours post application

Row | SMILES | percentage control (aphids, Myzus persicae; 12.5 g/ha, 24 h) | percentage control (aphids, Myzus persicae; 12.5 g/ha, 48 h) | percentage control (aphids, Myzus persicae; 25 g/ha, 24 h) | percentage control (aphids, Myzus persicae; 25 g/ha, 48 h) | percentage control (aphids, Myzus persicae; 50 g/ha, 24 h) | percentage control (aphids, Myzus persicae; 50 g/ha, 48 h) | percentage control (aphids, Myzus persicae; 100 g/ha, 24 h) | percentage control (aphids, Myzus persicae; 100 g/ha, 48 h) | percentage control (aphids, Myzus persicae; 200 g/ha, 24 h) | percentage control (aphids, Myzus persicae; 200 g/ha, 48 h) | pest or weed control at 0.1 % strength (aphids, Myzus persicae; [3]) | pest or weed control at 0.1 % strength (aphids, Myzus persicae; [4]) | percentage control ([1]; 12.5 g/ha, 24 h) | percentage control ([1]; 12.5 g/ha, 48 h) | percentage control ([1]; 25 g/ha, 24 h) | percentage control ([1]; 25 g/ha, 48 h) | percentage control ([1]; 50 g/ha, 24 h) | percentage control ([1]; 50 g/ha, 48 h) | percentage control ([1]; 100 g/ha, 24 h) | percentage control ([1]; 100 g/ha, 48 h) | further results
1 | CC(=O)N=S(C)(=O)C(C)c1ccc(C(F)(F)F)nc1 (stereo not drawn) [Compound 12, N-[Methyl-oxo-[1-[6-(trifluoromethyl)-3-pyridyl]ethyl]-λ^6-sulfanylidene]acetamide] | E (A percentage control of from 1 to 19 is indicated by the letter E) | D (A percentage control of from 20 to 39 is indicated by the letter D) | E (A percentage control of from 1 to 19 is indicated by the letter E) | D (A percentage control of from 20 to 39 is indicated by the letter D) | E (A percentage control of from 1 to 19 is indicated by the letter E) | C (A percentage control of from 40 to 59 is indicated by the letter C) | E (A percentage control of from 1 to 19 is indicated by the letter E) | D (A percentage control of from 20 to 39 is indicated by the letter D) | E (A percentage control of from 1 to 19 is indicated by the letter E) | D (A percentage control of from 20 to 39 is indicated by the letter D) | 20 to 39% | 40 to 59% | D (A percentage control of from 20 to 39 is indicated by the letter D) | D (A percentage control of from 20 to 39 is indicated by the letter D) | D (A percentage control of from 20 to 39 is indicated by the letter D) | D (A percentage control of from 20 to 39 is indicated by the letter D) | C (A percentage control of from 40 to 59 is indicated by the letter C) | C (A percentage control of from 40 to 59 is indicated by the letter C) | B (A percentage control of from 60 to 79 is indicated by the letter B) | B (A percentage control of from 60 to 79 is indicated by the letter B) | percentage control ([1]; 200 g/ha, 24 h): B (A percentage control of from 60 to 79 is indicated by the letter B); percentage control ([1]; 200 g/ha, 48 h): A (A percentage control of from 80 to 100 is indicated by the letter A); activity against spider mites compared with the reference compound [1]: more active than the reference compound; pest or weed control at 0.1 % strength [2, 3]: 1 to 19%; pest or weed control at 0.00625 % strength [2, 4]: 1 to 19%; pest or weed control at 0.0125 % strength [2, 4]: 1 to 19%; pest or weed control at 0.025 % strength [2, 4]: 1 to 19%; pest or weed control at 0.05 % strength [2, 4]: 1 to 19%; pest or weed control at 0.1 % strength [2, 4]: 1 to 19%
2 | COC(=O)N=S(C)(=O)C(C)c1ccc(C(F)(F)F)nc1 (stereo not drawn) [Compound 13, Methyl N-[methyl-oxo-[1-[6-(trifluoromethyl)-3-pyridyl]ethyl]-λ^6-sulfanylidene]carbamate] | E (A percentage control of from 1 to 19 is indicated by the letter E) | D (A percentage control of from 20 to 39 is indicated by the letter D) | E (A percentage control of from 1 to 19 is indicated by the letter E) | D (A percentage control of from 20 to 39 is indicated by the letter D) | E (A percentage control of from 1 to 19 is indicated by the letter E) | D (A percentage control of from 20 to 39 is indicated by the letter D) | E (A percentage control of from 1 to 19 is indicated by the letter E) | E (A percentage control of from 1 to 19 is indicated by the letter E) | D (A percentage control of from 20 to 39 is indicated by the letter D) | C (A percentage control of from 40 to 59 is indicated by the letter C) | 20 to 39% | 20 to 39% | D (A percentage control of from 20 to 39 is indicated by the letter D) | B (A percentage control of from 60 to 79 is indicated by the letter B) | D (A percentage control of from 20 to 39 is indicated by the letter D) | C (A percentage control of from 40 to 59 is indicated by the letter C) | D (A percentage control of from 20 to 39 is indicated by the letter D) | B (A percentage control of from 60 to 79 is indicated by the letter B) | D (A percentage control of from 20 to 39 is indicated by the letter D) | B (A percentage control of from 60 to 79 is indicated by the letter B) | percentage control ([1]; 200 g/ha, 24 h): D (A percentage control of from 20 to 39 is indicated by the letter D); percentage control ([1]; 200 g/ha, 48 h): B (A percentage control of from 60 to 79 is indicated by the letter B); activity against spider mites compared with the reference compound [1]: more active than the reference compound; pest or weed control at 0.1 % strength [2, 3]: 1 to 19%; pest or weed control at 0.00625 % strength [2, 4]: 1 to 19%; pest or weed control at 0.0125 % strength [2, 4]: 1 to 19%; pest or weed control at 0.025 % strength [2, 4]: 1 to 19%; pest or weed control at 0.05 % strength [2, 4]: 1 to 19%; pest or weed control at 0.1 % strength [2, 4]: 20 to 39%
3 | CC(c1ccc(C(F)(F)F)nc1)S(C)(=O)=NS(C)(=O)=O (stereo not drawn) [Compound 14, N-[methyl-oxo-[1-[6-(trifluoromethyl)-3-pyridyl]ethyl]-λ^6-sulfanylidene]methane-sulfonamide] | E (A percentage control of from 1 to 19 is indicated by the letter E) | D (A percentage control of from 20 to 39 is indicated by the letter D) | E (A percentage control of from 1 to 19 is indicated by the letter E) | E (A percentage control of from 1 to 19 is indicated by the letter E) | E (A percentage control of from 1 to 19 is indicated by the letter E) | D (A percentage control of from 20 to 39 is indicated by the letter D) | E (A percentage control of from 1 to 19 is indicated by the letter E) | D (A percentage control of from 20 to 39 is indicated by the letter D) | E (A percentage control of from 1 to 19 is indicated by the letter E) | D (A percentage control of from 20 to 39 is indicated by the letter D) | 20 to 39% | 20 to 39% | D (A percentage control of from 20 to 39 is indicated by the letter D) | C (A percentage control of from 40 to 59 is indicated by the letter C) | C (A percentage control of from 40 to 59 is indicated by the letter C) | C (A percentage control of from 40 to 59 is indicated by the letter C) | D (A percentage control of from 20 to 39 is indicated by the letter D) | C (A percentage control of from 40 to 59 is indicated by the letter C) | C (A percentage control of from 40 to 59 is indicated by the letter C) | B (A percentage control of from 60 to 79 is indicated by the letter B) | percentage control ([1]; 200 g/ha, 24 h): B (A percentage control of from 60 to 79 is indicated by the letter B); percentage control ([1]; 200 g/ha, 48 h): B (A percentage control of from 60 to 79 is indicated by the letter B); activity against spider mites compared with the reference compound [1]: more active than the reference compound; pest or weed control at 0.1 % strength [2, 3]: 1 to 19%; pest or weed control at 0.00625 % strength [2, 4]: 1 to 19%; pest or weed control at 0.0125 % strength [2, 4]: 1 to 19%; pest or weed control at 0.025 % strength [2, 4]: 1 to 19%; pest or weed control at 0.05 % strength [2, 4]: 1 to 19%; pest or weed control at 0.1 % strength [2, 4]: 1 to 19%
